Measured values published in patent US12515027B2, “Subcutaneous biodegradable reservoir device” (Research Triangle Institute, priority 2018, dated 2026).
In brackets after ≈: the same amount, converted by molar mass. Several values for one entry are separate records, joined by “and”; a condition that tells them apart may be missing. Identical values can stand only once. Counter-ions that a name gives are not always drawn.

How the values were obtained:
[1] = rhesus monkey, in vivo; cited from earlier work
[2] = In vitro release from PCL reservoir implants in PBS pH 7.4 at 37 °C (UV-Vis); assay type: physicochemical; conditions: for Daily RR: PCL 89 kDa
Description: The implants were incubated in 1×PBS (pH 7.4) at 37° C. Drug quantity released in media was measured via UV-Vis three times per week during which the implants were transferred to fresh buffer to maintain sink conditions. Drug concentrations were determined by correlating UV absorbance values to a standard curve. Standard curves involved measuring peak absorbance values as a function of drug concentrations diluted by half from bulk solutions. Peak absorbance values were determined by scanning the dilute drug solutions from 230 to 700 nm at a step size of 1 nm and assessing the maximum UV absorbance value.
Testing was performed to evaluate release kinetics of varying formulations of active agent and excipient. In particular, the release mechanism and release profiles for TAF formulated with varying mass quantities of castor oil from extruded PCL tubes was evaluated. Heat extruded PCL devices were fabricated (2.5 mm×40 mm) using 80 kDa Sigma grade PCL. […] For the in vitro release studies, devices were incubated in 40 mL of phosphate buffered saline (PBS) at pH 7.4 in a shaking incubator at 37° C. The implants were transferred to fresh buffer three times per week to maintain sink conditions.
Testing was performed to evaluate the in vitro release profile for an exemplary segmented device. In-vitro conditions included a simulated physiological media of a salt solution at pH between 6.5 and 7.5 at a temperature of 37° C. The exemplary device was engineered to release two APIs simultaneously, both at zero-order release kinetics. The device was fabricated with a segmented architecture that contained LNG formulated with ethyl oleate at a 1:4 ratio and EFdA formulated with castor oil at a 1:1 ratio and housed in separate compartments within a single implant design. Different segment lengths, polymer membrane thicknesses and polymer properties were tested.
In vitro release characterization involved incubation of the implants in 40 mL 1× phosphate buffered saline (PBS) (pH 7.4) at 37° C. and placed on an orbital shaker. […] The release buffer was sampled three times per week during which the devices were transferred to 40 mL of fresh buffer to maintain sink conditions. TAF quantity released in each PBS buffer during the time interval was calculated and cumulative mass of drug release as a function of time was determined.

[3] = Chromatographic purity (stability) of formulation inside implant after in-vitro exposure (UPLC/UV); assay type: physicochemical
[4] = physchem; conditions: 37 °C, organic solvent or mixture, thermodynamic from solid, Solubility
Description: Over a 24-hour period, the solutions were mixed periodically and returned to the water bath. After approximately 72 hours, the solutions were removed from the water bath and appearance recorded for each of the saturated solutions. […] The supernatants were prepared for analysis by UPLC. Triplicate weighed aliquots were prepared from the collected supernatants and analyzed for assay using a UPLC/UV method. The analysis was performed using a Waters BEH C18 column (2.1 mm×50 mm, 1.7 μm) under gradient, reversed phase conditions with detection at 260 nm. The saturated solutions were quantitated by linear regression analysis against a 5-point calibration curve.
Testing using the same methodology was performed for EFdA, LNG, and ENG using various excipients.

[5] = In vivo study of one or two subcutaneous PC12 implants, 90 days (Example 20); parameters: species or system New Zealand white rabbits; conditions: hormone in subcutaneous implant
Description: In vivo analysis was performed with 20 naïve New Zealand white rabbits. […] In particular, female NZW rabbits each received two subcutaneous implants bilaterally inserted into the subscapular region: (1) one implant that contained an ARV drug and (2) one implant that contained a hormonal contraceptive drug. Both implants remained in the subcutaneous space for 90 days. Blood samples were taken at 0, 1, 3, 7, […], 45, 60, 75, and 90 days. After 90 days, the animals were euthanized, and the implants were retrieved. Tissues were collected and analyzed for levels of ARVs (TFV, TAF, and TFV-DP). As a comparator for the dual insertion modality, each female NZW rabbit in a separate group received a single implant, where each implant contained a single drug formulation: either ARV or hormone. The implant remained in the subcutaneous space for 90 days. Blood samples were taken at 0, 1, 3, 7, 15, 30, 45, 60, 75, and 90 days. After 90 days, the animals were euthanized, and the implants were retrieved. Tissues were collected and analyzed for levels of ARVs (TFV, TAF, and TFV-DP). The polymer was PC12.

[6] = Stability of Naltrexone base in excipients; assay type: physicochemical; conditions: stability results
[7] = Naltrexone excipient screen, rapid solubility assay; assay type: physicochemical
Description: Heat extruded polycaprolactone (PCL) tubes were fabricated (2.5 mm×40 mm) using 80 kDa PCL to produce devices with 70 μm and 100 μm wall thicknesses. […] In vitro release studies involved incubation of devices in 40 mL of phosphate buffered saline (PBS), pH 7.4 in a shaking incubator at 37° C. Implants were transferred to fresh buffer three times per week to maintain sink conditions. The concentration of drugs released in media over time was measured via UV-vis spectroscopy. Solubility, stability, and purity of APIs in excipient were evaluated via HPLC.

[8] = Evaluation of Elvitegravir for use in the device
[9] = segmented implant: ENG:sesame oil 2:1 (10 mm, 200 μm) + TAF base:castor oil 2:1 (40 mm, 70 μm)
[10] = segmented implant: ENG:sesame oil 2:1 (10 mm, 200 μm) + TAF base:sesame oil 2:1 (40 mm, 70 μm)

## Nc1nc(=O)n([C@@H]2CS[C@H](COP(=O)(O)OP(=O)(O)OP(=O)(O)O)O2)cc1F [FTC-TP, FTC-triphosphate]
[1]
  duration of sustained levels in PBMCs: 28 days

## C#C[C@]1(CO)O[C@@H](n2cnc3c(N)nc(F)nc32)C[C@@H]1O [EFdA]
[2]; 70 μm wall, FIG. 11C study
  release rate for the glycerol device: 30 μg of EFdA/day
  release rate for the sesame oil device: 8 μg of EFdA/day
[2]; EFdA castor oil devices, 70 μm, medical grade PCL
  duration of sustained linear release: 1 year
[2]; EFdA formulations other than castor oil
  exposure after which release deviated from zero-order: > 200 days
[2]; EFdA segment of segmented implant
  duration of zero-order kinetics: 1 year
[2]; EFdA with varying excipients, 70 μm wall
  duration of sustained, zero order release: over 60 days
[2]; EFdA-castor oil devices, 80 KDa PCL, 70 μm wall
  duration of sustained zero-order release: 200 days
[2]; EFdA:castor oil 1:1, 70 μm wall
  Release Rate (μg/day, 10 mm device): 10 µg/day and 10.0 µg/day
[2]; EFdA:ethyl oleate 1:1, 70 μm wall
  Release Rate (μg/day, 10 mm device): 13.0 µg/day
[2]; EFdA:glycerol 1:1, 70 μm wall
  Release Rate (μg/day, 10 mm device): 15 µg/day and 15.0 µg/day
[2]; EFdA:propylene glycol 1:1, 70 μm wall
  Release Rate (μg/day, 10 mm device): 11.0 µg/day
[2]; EFdA:sesame oil 1:1, 70 μm wall
  Release Rate (μg/day, 10 mm device): 12.0 µg/day
[2]; exemplary EFdA formulations, summary statement
  duration of sustained linear release: over 1 year
[2]; exemplary formulations/devices, summary statement
  release profile / release rate: 5 to 30 µg/day
[2]; segmented implant LNG/EFdA
  duration of zero-order release: 6 months
[2]; segmented implant: LNG:ethyl oleate 1:4 and EFdA:castor oil 1:1, 70 μm wall, EFdA after burst of first 10 days
  release rate of segment: ~20 µg/day
[3]; EFdA with castor oil
  % Purity at Day-365: 99.3%
[3]; EFdA with ethyl oleate
  % Purity at Day-365: 99.4%
[3]; EFdA with glycerol
  % Purity at Day-365: 99.5%
[3]; EFdA with propylene glycol
  % Purity at Day-365: 99.5%
[3]; EFdA with sesame oil
  % Purity at Day-365: 99.3%
[3]; after 1 year in in-vitro conditions
  stability within an exemplary implant: ~99%
[3]; all EFdA implants, Day-365
  purity after 1 year of exposure to in-vitro conditions: > 99%
[4]
  solubility at 72 h: 34.9 mg/mL (≈ 119 mM)

## C#C[C@]1(O)CC[C@H]2[C@@H]3CCC4=CC(=O)CC[C@@H]4[C@H]3CC[C@@]21CC [LNG, Levonorgestrel]
[3]; tested at 240 days in in-vitro conditions
  stability within an exemplary implant: greater than 92%
[5]
  stability in vivo for 90 days: 99.2%±0.1

## CC(Cn1cnc2c(N)ncnc21)OCP(=O)(O)OP(=O)(O)OP(=O)(O)O (stereo in doubt) [TFV-DP, tenofovir diphosphate]
[1]
  duration of sustained levels in PBMCs: 83 days

## O=C1CC[C@@]2(O)[C@H]3Cc4ccc(O)c5c4[C@@]2(CCN3CC2CC2)[C@H]1O5 [Naltrexone Base, Naltrexone]
[6]; with PEG600
  Sum of impurities (% total area): 5.10%
[6]; with castor oil
  Sum of impurities (% total area): 5.20%
[6]; with ethyl oleate
  Sum of impurities (% total area): 9.90%
[6]; with sesame oil
  Sum of impurities (% total area): 6.40%
[7]; API alone, no excipient (reference line)
  Sum of impurities (% total area): 2.50%
[7]; excipient screen, in PEG600
  Sum of impurities (% total area): 2.10%
[7]; excipient screen, in castor oil
  Sum of impurities (% total area): 4.50%
[7]; excipient screen, in ethyl oleate
  Sum of impurities (% total area): 9.60%
[7]; excipient screen, in sesame oil
  Sum of impurities (% total area): 3.20%
[7]; in PEG600
  Assay: 46.2 mg/mL
[7]; in castor oil
  Assay: 9.63 mg/mL
[7]; in ethyl oleate
  Assay: 2.79 mg/mL
[7]; in sesame oil
  Assay: 4.62 mg/mL

## O=C1CC[C@@]2(O)[C@H]3Cc4ccc(O)c5c4[C@@]2(CCN3CC2CC2)[C@H]1O5 [Naltrexone Salt, Naltrexone hydrochloride]
[7]; API alone, no excipient (reference line), hydrochloride
  Sum of impurities (% total area): 4.10%
[7]; in PEG600, hydrochloride
  Assay: <0.1 mg/mL
[7]; in castor oil, hydrochloride
  Assay: <0.1 mg/mL
[7]; in ethyl oleate, hydrochloride
  Assay: No measurable solubility
[7]; in sesame oil, hydrochloride
  Assay: No measurable solubility

## CC(C)OC(=O)[C@H](C)N[P@](=O)(CO[C@H](C)Cn1cnc2c(N)ncnc21)Oc1ccccc1 [TAF base]
[2]; [9]
  Daily RR: 94.8 ± 17.6 µg/day
[2]; [10]
  Daily RR: 57.9 ± 8.6 µg/day
[2]; segmented implant: LNG:sesame oil 2:1 (20 mm, 70 μm) + TAF base:castor oil 2:1 (30 mm, 70 μm)
  Daily RR: 86.4 ± 10.3 µg/day
[2]; segmented implant: LNG:sesame oil 2:1 (20 mm, 70 μm) + TAF base:sesame oil 2:1 (30 mm, 70 μm)
  Daily RR: 47.7 ± 6.7 µg/day

## COc1cc2c(cc1Cc1cccc(Cl)c1F)c(=O)c(C(=O)O)cn2[C@H](CO)C(C)C [Elvitegravir]
[8]
  aqueous solubility: low

## C#C[C@]1(O)CC[C@H]2[C@@H]3CCC4=CC(=O)CC[C@@H]4[C@H]3C(=C)C[C@@]21CC [ENG, Etonogestrel]
[2]; 10 mm-long devices, 200 μm implants per b165 (second listing in Table 5)
  Release rate: ~30 µg/day
[2]; ENG 1:4 and 1:1 drug to excipient ratios, depletion of drug
  start of deviation from linear release: ~50 days
[2]; ENG 2:1 ratio with castor oil or sesame oil
  duration of sustained release with zero-order kinetics: approximately 300 days
[2]; exemplary device, in vitro conditions
  sustained period of release at about 30 μg/day: up to 180 days
[2]; exemplary formulations, summary statement
  duration of linear release profile in vitro: 230 days
[2]; [9]
  Daily RR: 26.2 ± 7.1 µg/day
[2]; [10]
  Daily RR: 26.3 ± 6.7 µg/day
[2]; segmented implants of TAF with LNG or ENG
  duration of zero-order release from segmented implants: 50 days
[3]; after 180-day in-vitro exposure, 200 μm implants per b165 (second listing in Table 5)
  % Purity at 180 Days: 99%
[3]; tested at 180 days in in-vitro conditions
  stability within an exemplary implant: > 99%
[5]
  stability in vivo for 90 days: 99.5%
